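Where inhibition never reached the appropriate level, the endpoint shown equals the highest concentration tested. Otherwise, values were interpolated linearly from a five-concentration, 48-hour dose response in 96-well plates. TGI denotes the concentration required for complete inhibition of growth.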
Key:
Assay in all cases: growth of human tumour cells (NCI), 48 h
MALME-3M melanoma = system: MALME-3M melanoma
OVCAR-3 ovarian = system: OVCAR-3 ovarian
MCF7 breast = system: MCF7 breast
SW-620 colon = system: SW-620 colon
K-562 leukemia = system: K-562 leukemia
HOP-62 NSCLC = system: HOP-62 NSCLC
A498 renal = system: A498 renal
NCI-H23 lung = system: NCI-H23 lung
NCI-H460 lung = system: NCI-H460 lung
CAKI-1 renal = system: CAKI-1 renal
UO-31 renal = system: UO-31 renal
786-0 renal = system: 786-0 renal
NCI-H522 lung = system: NCI-H522 lung
SK-MEL-2 melanoma = system: SK-MEL-2 melanoma
PC-3 prostate = system: PC-3 prostate
RXF 393 renal = system: RXF 393 renal
SK-MEL-5 melanoma = system: SK-MEL-5 melanoma
MDA-MB-435 = system: MDA-MB-435

| SMILES | TGI (MALME-3M melanoma) [µM] | TGI (OVCAR-3 ovarian) [µM] | TGI (MCF7 breast) [µM] | TGI (SW-620 colon) [µM] | TGI (K-562 leukemia) [µM] | TGI (HOP-62 NSCLC) [µM] | TGI (A498 renal) [µM] | TGI (NCI-H23 lung) [µM] | TGI (NCI-H460 lung) [µM] | TGI (CAKI-1 renal) [µM] | TGI (UO-31 renal) [µM] | TGI (786-0 renal) [µM] | TGI (NCI-H522 lung) [µM] | TGI (SK-MEL-2 melanoma) [µM] | TGI (PC-3 prostate) [µM] | TGI (RXF 393 renal) [µM] | TGI (SK-MEL-5 melanoma) [µM] | TGI (MDA-MB-435) [µM] |
| --- | --- | --- | --- | --- | --- | --- | --- | --- | --- | --- | --- | --- | --- | --- | --- | --- | --- | --- |
| COc1cc(S(=O)(=O)Nc2nc(-c3ccc(N4C(=O)C(CC(=O)O)SC4c4ccccc4O)cc3)cs2)ccc1Cl (stereo not drawn) | > 100 | > 100 | > 100 | > 100 | > 100 | > 100 | > 100 | 86.7 | > 100 | > 100 | > 100 | > 100 | > 100 | > 100 | > 100 | > 100 | > 100 | > 100 |
| CN(C)C=C1C(=O)c2c(Br)sc(Br)c2C1=O | 29.3 | 40.8 | > 100 | > 100 | 66.4 | 91.4 | 47.8 | 37.8 | 48.7 | 36 | 47.5 | > 100 | 31.5 | 31.3 | 49.9 | 42.4 | 30.6 | 29.5 |
| O=C1NC(=O)C(Cc2ccccc2)(c2cccnc2)N1 (stereo not drawn) | > 100 | > 100 | > 100 | > 100 | > 100 | > 100 | > 100 | > 100 | > 100 | > 100 | > 100 | > 100 | > 100 | > 100 | > 100 | > 100 | > 100 | > 100 |
| O=C(c1cc(Cl)cc(Cl)c1)N(C(=O)N1CCN(c2ccccc2)CC1)c1ccccc1 | > 100 | > 100 | > 100 | > 100 | > 100 | > 100 | > 100 | > 100 | > 100 | > 100 | > 100 | > 100 | > 100 | > 100 | > 100 | > 100 | 75.7 | 48.5 |
| CCCCCCCCCCCCCCCCCCNc1ccn(C2OC(COP(=O)(O)OC3CC(n4cc(F)c(=O)[nH]c4=O)OC3COP(=O)(O)OCC3OC(n4ccc(N)nc4=O)C(O)C3O)C(O)C2O)c(=O)n1 (stereo not drawn) | > 100 | > 100 | > 100 | > 57.3 | > 100 | > 76.8 | > 100 | > 45.7 | > 32.7 | 35.5 | > 51.9 | > 58.1 | > 69.7 | 37.3 | > 66.7 | > 75.5 | > 48.8 | > 62.5 |
| CCOC(=O)C(SCCO)C(C(=O)OCC)n1cnc2c(N)ncnc21 (stereo not drawn) | 23.8 | 25.4 | 20.1 | 12.5 | 14.6 | 45.4 | 19.2 | 31.2 | 18 | 15.1 | 55.1 | 12.2 | 19.1 | 24.4 | 14.7 | 29.6 | > 58 | 30.2 |
| CCOC(=O)C(C(=O)OCC)=C1NC2(c3ccccc3Nc3ccc(C)cc32)C(C#N)S1 (stereo not drawn) | 30.7 | 8.44 | 11.9 | 30.3 | 25.8 | 33.7 | 29.4 | 12.3 | 12.7 | 72 | 17.8 | 30.1 | 30 | 22.1 | 13.7 | 27.8 | 20 | 23.5 |
| O=c1[nH]c(C23CC4CC(CC(C4)C2)C3)cc2c1c(=O)oc1ccccc12 | 13.7 | 17.5 | > 41 | > 51.8 | > 35.8 | 9.56 | 5.11 | 23 | 11.6 | 7.03 | 4.23 | 3.1 | 11.1 | 38.7 | 10.5 | 7.71 | 18.3 | > 60.5 |
| COc1cc(S(=O)(=O)Nc2nc(-c3ccc(N4C(=O)CSC4c4cccs4)cc3)cs2)ccc1Cl (stereo not drawn) | > 100 | > 100 | > 100 | > 100 | > 100 | > 100 | > 100 | 89 | > 100 | > 100 | 73.4 | > 100 | 83.2 | > 100 | > 100 | 55.9 | > 100 | > 100 |
| C[C@]12C[C@H](c3ccccc3)Nc3ccccc3N1C(c1ccccc1)=NO2 | > 100 | > 100 | > 100 | > 100 | > 100 | > 100 | > 100 | > 100 | > 100 | > 100 | > 100 | > 100 | > 100 | > 100 | > 100 | > 100 | > 100 | > 100 |
| CC1(C)CN=C(c2ccc3c(c2)Cc2cc(C4=NCC(C)(C)N4)ccc2-3)N1 | 61.2 | > 100 | 86.5 | > 100 | 90.4 | > 100 | > 100 | > 100 | > 100 | > 100 | > 100 | > 100 | 83.6 | 49.9 | > 100 | > 100 | > 100 | 98.9 |
